T/C data for 21 compounds are collected here from PubChem BioAssay AID328 (DTP/NCI, 2004).

“And” between values parts separate entries of the source, which are not always exact repeats. Equal entries are not always repeated. Toxic doses and inconclusive results are not listed.

The test system of this test is BDF1 mice, P388 leukemia ip, median survival T/C. Put plainly: NCI In Vivo Anticancer Drug Screen. Data for tumor model P388 Leukemia (intraperitoneal) in B6D2F1 (BDF1) mice. The settings on record: endpoint: median survival time, higher = longer survival. Put shortly: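 Mice carrying the transplantable tumour receive compound or vehicle. Survival is followed in each arm, and the treated measure is divided by the vehicle measure.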

The mark [1] stands for this setting: dose: 50.0 mg/kg/injection, schedule: Q01DX005 (ip), vehicle: saline with Tween-80.
Setting [2] is: dose: 100.0 mg/kg/injection, schedule: Q01DX005 (ip), vehicle: saline with Tween-80.
Setting [3] is: dose: 200.0 mg/kg/injection, schedule: Q01DX005 (ip), vehicle: saline with Tween-80.
[4] abbreviates: dose: 6.25 mg/kg/injection, schedule: Q01DX009 (ip), vehicle: saline.
[5] abbreviates: dose: 50.0 mg/kg/injection, schedule: Q01DX009 (ip), vehicle: saline with Tween-80.
Where [6] appears, read: dose: 100.0 mg/kg/injection, schedule: Q01DX009 (ip), vehicle: saline with Tween-80.
[7] abbreviates: dose: 200.0 mg/kg/injection, schedule: Q01DX009 (ip), vehicle: saline with Tween-80.
Where [8] appears, read: dose: 100.0 mg/kg/injection, schedule: Q04DX003 (ip), vehicle: saline with Tween-80.
The mark [9] stands for this setting: dose: 200.0 mg/kg/injection, schedule: Q04DX003 (ip), vehicle: saline with Tween-80.
Where [10] appears, read: dose: 400.0 mg/kg/injection, schedule: Q04DX003 (ip), vehicle: saline with Tween-80.
The mark [11] stands for this setting: dose: 25.0 mg/kg/injection, schedule: Q01DX009 (ip), vehicle: Klucel (hydroxypropylcellulose) (HPC).
[12] abbreviates: dose: 50.0 mg/kg/injection, schedule: Q01DX009 (ip), vehicle: Klucel (hydroxypropylcellulose) (HPC).
Setting [13] is: dose: 100.0 mg/kg/injection, schedule: Q01DX009 (ip), vehicle: Klucel (hydroxypropylcellulose) (HPC).

On to `C[n+]1c(-c2ccccc2)c2cc(N)ccc2c2ccccc21`, for which the T/C by setting is: (dose: 3.1 mg/kg/injection, schedule: Q04DX003 (ip), vehicle: saline) 110 % of control; (dose: 6.6 mg/kg/injection, schedule: Q01DX009 (ip), vehicle: saline) 153 % of control; (dose: 10.0 mg/kg/injection, schedule: Q01DX009 (ip), vehicle: saline) 165 % of control and 181 % of control; (dose: 10.0 mg/kg/injection, schedule: Q04DX003 (ip), vehicle: saline) 122 % of control.

Consider `CCSc1c(S)cnn(C)c1=O`, for which the T/C is 90 % of control under setting [1], 90 % of control under setting [2] and 97 % of control under setting [3].

Take `Cc1cccc2cc3cccc[n+]3cc12`: the T/C was 104 % of control (dose: 1.56 mg/kg/injection, schedule: Q01DX009 (ip), vehicle: saline); 104 % of control (dose: 3.12 mg/kg/injection, schedule: Q01DX009 (ip), vehicle: saline); 109 % of control under setting [4]; 105 % of control (dose: 6.75 mg/kg/injection, schedule: Q04DX003 (ip), vehicle: saline); 109 % of control (dose: 9.2 mg/kg/injection, schedule: Q01DX009 (ip), vehicle: saline); 90 % of control (dose: 13.5 mg/kg/injection, schedule: Q04DX003 (ip), vehicle: saline).

In the case of `N#Cc1cccc(CC(O)(c2ccccc2)c2cccc3ccccc23)c1` (centres undefined), the T/C is 103 % of control under setting [5], 97 % of control under setting [6] and 99 % of control under setting [7].

For the compound `CCc1ccc(O)c(C(=O)c2c[nH]c(=O)c(C(N)=O)c2)c1`, the T/C is 103 % of control (dose: 50.0 mg/kg/injection, schedule: Q04DX002 (ip), vehicle: saline with Tween-80); 94 % of control (dose: 100.0 mg/kg/injection, schedule: Q04DX002 (ip), vehicle: saline with Tween-80); 99 % of control (dose: 200.0 mg/kg/injection, schedule: Q04DX002 (ip), vehicle: saline with Tween-80).

As to `CC(N)Cc1c(Cl)cc(N(C)C)cc1Cl` (centres undefined), the T/C was 100 % of control (dose: 3.13 mg/kg/injection, schedule: Q01DX009 (ip), vehicle: saline); 100 % of control under setting [4]; 102 % of control (dose: 12.5 mg/kg/injection, schedule: Q01DX009 (ip), vehicle: saline).

In the case of `CCCCN(S(=O)(=O)C(F)(F)F)S(=O)(=O)C(F)(F)F`, the T/C is, setting by setting: (dose: 100.0 mg/kg/injection, schedule: Q01DX009 (ip), vehicle: saline) 91 % of control; (dose: 200.0 mg/kg/injection, schedule: Q01DX009 (ip), vehicle: saline) 91 % of control; (dose: 400.0 mg/kg/injection, schedule: Q01DX009 (ip), vehicle: saline) 100 % of control.

`CN(C)c1ccc(/C=C/c2ccnc3ccccc23)c(O)c1`: under setting [8], the T/C was 113 % of control.

On to `Nc1ccc(-c2ccc(N)cc2Br)c(Br)c1`, for which the T/C is 100 % of control under setting [8], 95 % of control under setting [9] and 104 % of control under setting [10].

Consider `CN(C)c1ccc(C=Nc2c(N)n(C)c(=O)n(C)c2=O)cc1`, for which the T/C under setting [8] is 101 % of control, the T/C under setting [9] is 92 % of control and the T/C under setting [10] is 93 % of control.

For `CC(NC(=O)OCc1ccccc1)C(=O)NCCN(C)C` (centres undefined), the T/C runs as follows: (dose: 50.0 mg/kg/injection, schedule: Q01DX005 (ip), vehicle: saline) 100 % of control; (dose: 100.0 mg/kg/injection, schedule: Q01DX005 (ip), vehicle: saline) 91 % of control; (dose: 200.0 mg/kg/injection, schedule: Q01DX005 (ip), vehicle: saline) 100 % of control.

Take `Nc1ncnc2c1ncn2C1OC(COP(=O)(O)O)C(O)C1O` (centres undefined): the T/C reads like this: (dose: 18.8 mg/kg/injection, schedule: Q03HX016 (ip), vehicle: saline) 121 % of control; (dose: 100.0 mg/kg/injection, schedule: Q03HX016 (ip), vehicle: saline) 157 % of control; (dose: 100.0 mg/kg/injection, schedule: Q03HX024 (ip), vehicle: saline) 151 % of control; (dose: 150.0 mg/kg/injection, schedule: Q03HX016 (ip), vehicle: saline) 169 % of control; (dose: 150.0 mg/kg/injection, schedule: Q03HX024 (ip), vehicle: saline) 178 % of control.

Consider `CC1(C)CNC2OC1NCC2(C)C`, for which the T/C is, setting by setting: (dose: 100.0 mg/kg/injection, schedule: Q01DX001 (ip), vehicle: saline sonified) 100 % of control; (dose: 200.0 mg/kg/injection, schedule: Q01DX001 (ip), vehicle: saline sonified) 100 % of control; (dose: 400.0 mg/kg/injection, schedule: Q01DX001 (ip), vehicle: saline sonified) 104 % of control.

`O=C(NCCCl)N(CCCl)C(=O)Oc1c(Cl)cc(Cl)cc1Cl`: the T/C is 100 % of control under setting [1], 112 % of control under setting [2] and 100 % of control under setting [3].

`OC(c1ccccc1)c1ccccc1`: the T/C (dose: 100.0 mg/kg/injection, schedule: Q01DX001 (ip), vehicle: other) was 95 % of control; the T/C (dose: 200.0 mg/kg/injection, schedule: Q01DX001 (ip), vehicle: other) is 104 % of control; the T/C (dose: 400.0 mg/kg/injection, schedule: Q01DX001 (ip), vehicle: other) is 100 % of control.

As to `NC(CC(=O)CCl)C(=O)O` (centres undefined), the T/C is, setting by setting: (dose: 8.25 mg/kg/injection, schedule: Q04DX003 (ip), vehicle: saline with Tween-80) 154 % of control; (dose: 12.5 mg/kg/injection, schedule: Q04DX003 (ip), vehicle: Klucel (hydroxypropylcellulose) (HPC)) 165 % of control; (dose: 12.5 mg/kg/injection, schedule: Q04DX003 (ip), vehicle: saline with Tween-80) 172 % of control; (dose: 18.75 mg/kg/injection, schedule: Q04DX003 (ip), vehicle: saline with Tween-80) 109 % of control; (dose: 25.0 mg/kg/injection, schedule: Q04DX003 (ip), vehicle: Klucel (hydroxypropylcellulose) (HPC)) 165 % of control.

In the case of `O=C(CBr)c1ccc(/C=C/c2ccc(Cl)cc2)cc1`, the T/C is 95 % of control under setting [5]; 109 % of control (dose: 50.0 mg/kg/injection, schedule: Q04DX003 (ip), vehicle: saline with Tween-80); 120 % of control under setting [6]; 109 % of control under setting [8].

Regarding `O=c1ccc(=O)c2c(=O)c3ccccc3c(=O)c1=2`, the T/C was 104 % of control under setting [11]; 103 % of control under setting [12]; 95 % of control (dose: 50.0 mg/kg/injection, schedule: Q04DX003 (ip), vehicle: Klucel (hydroxypropylcellulose) (HPC)); 99 % of control under setting [13]; 104 % of control (dose: 100.0 mg/kg/injection, schedule: Q04DX003 (ip), vehicle: Klucel (hydroxypropylcellulose) (HPC)); 88 % of control (dose: 200.0 mg/kg/injection, schedule: Q04DX003 (ip), vehicle: Klucel (hydroxypropylcellulose) (HPC)).

As for `S=c1sc(-c2ccc(Cl)cc2)c[se]1`, the T/C was 97 % of control (dose: 0.78 mg/kg/injection, schedule: Q01DX009 (ip), vehicle: saline with Tween-80); 109 % of control (dose: 1.56 mg/kg/injection, schedule: Q01DX009 (ip), vehicle: saline with Tween-80); 93 % of control and 100 % of control (dose: 3.13 mg/kg/injection, schedule: Q01DX009 (ip), vehicle: saline with Tween-80); 93 % of control (dose: 12.5 mg/kg/injection, schedule: Q01DX009 (ip), vehicle: saline with Tween-80).

Take `c1ccc(N/N=C(/C[n+]2cc3ccccc3c3ccccc32)c2ccccc2)cc1`: the T/C by setting is: under setting [11], 114 % of control; (dose: 33.0 mg/kg/injection, schedule: Q01DX009 (ip), vehicle: Klucel (hydroxypropylcellulose) (HPC)) 113 % of control; (dose: 35.0 mg/kg/injection, schedule: Q01DX009 (ip), vehicle: Klucel (hydroxypropylcellulose) (HPC)) 95 % of control; under setting [12], 100 % of control; (dose: 75.0 mg/kg/injection, schedule: Q01DX009 (ip), vehicle: Klucel (hydroxypropylcellulose) (HPC)) 112 % of control and 122 % of control; under setting [13], 114 % of control.

For `C[C@]12CC[C@H]3[C@@H](CCC4=CC(=O)CC[C@@H]43)[C@@H]1CC[C@@H]2OC(=O)CCc1ccccc1`, the T/C is, setting by setting: under setting [6], 100 % of control; under setting [8], 86 % of control; under setting [7], 100 % of control; (dose: 400.0 mg/kg/injection, schedule: Q01DX009 (ip), vehicle: saline with Tween-80) 90 % of control; under setting [10], 86 % of control.
